Molecules are shown by their SMILES. Read-outs that look alike come from different tables or passages of the source.

What all share (type): cell-based
One experiment concerns SKOV3. Nature of the experiment: Cell viability (CellTiter-Blue, 72 h), SKOV3 ovarian cancer cells. To be noted: Homo sapiens, SK-OV-3. On the procedure: (§1) The following cell lines were tested in this example: Lung Cancer (A549, NCI-H460); Pancreatic cancer (PANC1, Mia-Pa-Ca-2); Melanoma (WM115, A375); Ovarian cancer (OVCAR3, SKOV3); Gastric cancer (MKN45, HGC-27); Renal cancer (ACHN) and Bladder Cancer (RT112).
(§2) Each tumour cell line was maintained in vitro in RPMI 1640+10% heat inactivated FBS and 2 mM L-glutamine (growth media) at 37° C. in 5% CO2 and humidified conditions. The cells were harvested, washed, re-suspended into growth medium and counted. The cells were re-suspended into assay media (RPMI 1640+5% heat inactivated FBS+ and 2 mM L-glutamine) at 4×10^4 cells/ml (dependent upon cell type) and plated into the middle 240 wells of 384 well tissue culture plates (Corning CellBind, black-wall plates) 25 μl/well aliquots; 50 μl of growth media was aliquoted into the outer wells. There were 3 plates for each cell line.
(§3) The plates were incubated overnight at 37° C., in 5% humidified CO2.
(§4) The phytocannabinoid test compounds were prepared in 100% DMSO vehicle at a stock concentration of 20 and 40 mM.
(§5) Starting with the 20 mM stock in DMSO, this was serially diluted (2 fold) in DMSO in a 96-well plate, to 20 (no dilution), 10, 5, 2.5, 1.25, 0.625, 0.315, 0.157 and […]. Following this, 10 ul of each compound dilution was diluted into 990 ul of 1% (v/v) FBS media in a deep well block making the final concentrations of 200, 100, 50, 25, 12.5, 6.25, 3.125, 1.56 and 0.79 μM (2× final assay concentrations and 1% DMSO).
(§6) An equal volume of each cannabinoid in the combination (stock concentration 40 mM) was mixed together to make a stock of 20 mM of each cannabinoid in DMSO. This was serially diluted (2 fold) in DMSO in a 96-well plate, to 20 (no dilution), 10, 5, 2.5, 1.25, 0.625, 0.315, 0.157 and […]. Following this, 10 ul of each combination dilution was diluted into 990 ul of 1% (v/v) FBS media in a deep well block making the final concentrations of 200, 100, 50, 25, 12.5, 6.25, 3.125, 1.56 and 0.79 μM (2× final assay concentrations and 1% DMSO).
(§7) Cisplatin (stock of 1 mg/ml=3.33 mM in water) was diluted in 1% FBS media to give a stock concentration of 1 mM. This was then diluted in 1% FBS media from the stock solution to 200 μM, then serially diluted (3-fold) in 1% FBS media to 200 (no dilution), 66.66, 22.22, 7.41, 2.47, 0.82, 0.27, 0.09, 0.03 μM (2× final assay concentrations; no DMSO).
(§8) The plates were incubated for 72 h at 37° C. in 5% humidified CO2. To develop the plates, at 72 h, 10 μl of CellTiter-Blue™ reagent was added to each test/blank well.
(§9) The plates were incubated at 37° C., 5% humidified CO2. Fluorescence was measured using a Flex II Station plate reader (570 nm excitation wavelength, 600 nm emission wavelength, 590 nm cut-off) after 3 h.
(§10) The phytocannabinoid compounds CBD, CBGA, CBG, CBDA, THCV and THC were tested on a panel of lung (A549, NCI-H460), pancreatic (PANC1, Mia-Pa-Ca-2), melanoma (WM115, A375), ovarian (OVCAR3, SKOV3), gastric (MKN45, HGC-27), renal (ACHN) and bladder (RT112) cancer cell lines according to the protocol for 72 h in media containing 1% FBS.
(§11) The IC50 values for each phytocannabinoid and combination of CBD with the other phytocannabinoids was calculated for each cell line. The raw data values expressed in relative fluorescent units were normalised to the vehicle for each individual plate and any reduction in fluorescence indicated a decrease in viability.
(§12) This calculation was as described in Example 1 above.

Another experiment has as its system MKN45. Nature of the experiment: Cell viability (CellTiter-Blue, 72 h), MKN45 gastric cancer cells. Conditions: Homo sapiens, MKN-45. On the procedure:
as §1, §2, §3, §4, §5, §6, §7, §8, §9, §10, §11, §12

A further experiment has as its system OVCAR3. Nature of the experiment: Cell viability (CellTiter-Blue, 72 h), OVCAR3 ovarian cancer cells. Conditions: Homo sapiens, OVCAR-3. On the procedure: as §1, §2, §3, §4, §5, §6, §7, §8, §9, §10, §11, §12
The mark [1] stands for this setting: SKOV3, 1% FBS, 72 h, read-out: Cell line IC50 value.
The mark [2] stands for this setting: SKOV3 cells, 1% FBS, read-out: Dm (potency, median effect).
Where [3] appears, read: MKN45, 1% FBS, 72 h, read-out: Cell line IC50 value.
Setting [4] is: MKN45 cells, 1% FBS, read-out: Dm (potency, median effect).
Setting [5] is: OVCAR3, 1% FBS, 72 h, read-out: Cell line IC50 value.
Setting [6] is: OVCAR3 cells, 1% FBS, read-out: Dm (potency, median effect).

As to `CCCCCc1cc(O)c(C/C=C(\C)CCC=C(C)C)c(O)c1` [CBG, Cannabigerol], the IC50 in the experiment on SKOV3 (setting [1]) is 5.5 µM; with SKOV3 (setting [2]) it was 4.75 µM; with MKN45 (setting [3]) it was 4.3 µM; in the experiment with MKN45 (setting [4]), 4.16 µM; in the experiment on OVCAR3 (setting [5]), 5.3 µM; in the experiment on OVCAR3 (setting [6]), 4.33 µM.
Consider `C=C(C)[C@@H]1CCC(C)=C[C@H]1c1c(O)cc(CCCCC)c(C(=O)O)c1O` [CBDA, Cannabidiolic acid], for which the IC50 with SKOV3 (setting [1]) is 1.3 µM; with SKOV3 (setting [2]), 10.6 µM; in the experiment on MKN45 (setting [3]) it was 8.8 µM; in the experiment on MKN45 (setting [4]), 8.04 µM; with OVCAR3 (setting [5]), 6.7 µM; in the experiment with OVCAR3 (setting [6]), 5.51 µM.
For the molecule `C=C(C)[C@@H]1CCC(C)=C[C@H]1c1c(O)cc(CCCCC)cc1O` [CBD, Cannabidiol], the IC50 amounted to 3.1 µM in the experiment on SKOV3 (setting [1]); 3.17 µM in the experiment on SKOV3 (setting [2]); 3.4 µM with MKN45 (setting [3]); 3.91 µM in the experiment with MKN45 (setting [4]); 2.8 µM in the experiment on OVCAR3 (setting [5]); 2.14 µM in the experiment with OVCAR3 (setting [6]).
Turning to `CCCCCc1cc(O)c(C/C=C(\C)CCC=C(C)C)c(O)c1C(=O)O` [CBGA, Cannabigerolic acid], the IC50 in the experiment with SKOV3 (setting [1]) turned out to be 7.9 µM; in the experiment with SKOV3 (setting [2]), 8.64 µM; with MKN45 (setting [3]), 6.5 µM; in the experiment with MKN45 (setting [4]) it was 6.4 µM; in the experiment with OVCAR3 (setting [5]), 6.1 µM; in the experiment with OVCAR3 (setting [6]) it was 6.41 µM.
With `CCCc1cc(O)c2c(c1)OC(C)(C)[C@@H]1CCC(C)=C[C@@H]21` [THCV, Tetrahydrocannabivarin], the IC50 with SKOV3 (setting [1]) stood at 6.5 µM; with SKOV3 (setting [2]) it was 6.58 µM; in the experiment with MKN45 (setting [3]), 6.5 µM; in the experiment with MKN45 (setting [4]) it was 6.88 µM; in the experiment with OVCAR3 (setting [5]) it was 6.5 µM; with OVCAR3 (setting [6]), 6.51 µM.
`CCCCCc1cc(O)c2c(c1)OC(C)(C)[C@@H]1CCC(C)=C[C@@H]21` [THC, Tetrahydrocannabinol, reference compound]: the IC50 in the experiment on SKOV3 (setting [1]) worked out at 5.3 µM; with SKOV3 (setting [2]), 4.56 µM; in the experiment on MKN45 (setting [3]) it was 4.2 µM; in the experiment with MKN45 (setting [4]) it was 4.42 µM; with OVCAR3 (setting [5]), 5.9 µM; in the experiment on OVCAR3 (setting [6]) it was 4.42 µM.

(Values after US9962341B2, “Active pharmaceutical ingredient (API) comprising cannabinoids for use in the treatment of cancer” (GW Pharma Limited, priority 2014, dated 2018).)
